Columns and labels:
Assay type in all cases: cell-based, human
[1] = tested on: SMN2 mRNA; assay: Splicing RT-qPCR gene panel, SMN2 canonical junction (CJ) mRNA; details: Homo sapiens, Tables 4A/4B, read-out: SMN2 (IC50, decrease in CJ mRNA, gene panel)
Method in brief: (§1)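 First, A673 cells adhered 24 h before dosing, while K562 cells were plated and dosed directly. Both lines were then exposed to compound for 24 h at 37 °C, 5% CO2, top concentration 10 uM. Finally, lysates underwent RT-qPCR of the canonical junction, with ΔΔCt-based relative quantification.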

[2] = tested on: Target C mRNA; assay: Splicing RT-qPCR gene panel, Target C canonical junction (CJ) mRNA; details: Homo sapiens, Tables 4A/4B, read-out: Target C (IC50, decrease in CJ mRNA, gene panel)
Method in brief: as §1

[3] = tested on: HTT mRNA; assay: Splicing RT-qPCR gene panel, HTT canonical junction (CJ) mRNA; details: Homo sapiens, Tables 4A/4B, read-out: HTT (IC50, decrease in CJ mRNA, gene panel)
Method in brief: as §1

[4] = tested on: Target C; assay: Protein abundance, HiBit-assay system (Promega), Target C; details: Table 6; HiBiT-modified K562 cells, 24 hours
Protocol: Compounds described herein were used to screen for effects on quantitative protein abundance using a HiBit assay system (Promega). Quantitative protein abundance was determined by measuring the protein levels of HiBit-tagged protein targets expressed in cell culture via luminescence using the Nano-Glo HiBiT Lytic Detection System, which uses a split complementation assay format to reconstitute NanoBiT enzyme to generate a luminescent signal. A protein abundance assay was developed such that endogenous protein targets could be modified with the HiBiT peptide tag and their abundance could be assessed after compound treatment. Briefly, K562 cell lines containing a HiBiT-modification were treated with various compounds described herein (e.g., compounds of Formulas (I) or (II)). After treatment for 24 hours, the protein abundance of a specific target was determined by measuring luminescence.
Cells were maintained in EIDM with 10% FBS. Before the assay, cells were diluted with […] growth media (EIDM+1% FBS media) and were seeded in a 384-well plate at a density of 10000 cells/well (for each cell line listed in Table 5). Each compound was prepared as a 10-point 3-fold serial dilution in DMSO with the top dose at a final concentration of 10 μM in the well. Unmodified K562 cells were added at the previously specified density with DMSO to serve as an assay baseline and positive control (PC) and DMSO only with the respective modified cell lines was added to the negative control (NC) columns. Final DMSO concentration was kept at or below 0.25%. Treated cell plates were placed in an incubator at 37° C. with 5% CO2 for 24 hours. After 24 hours, 25 μL of Complete HiBit Lytic reagent was added to each well at room temperature (e.g. one plate requiring 10 mL Lytic Buffer, 100 μL LgBiT Protein, 200 μL Lytic Substrate), shaken for 5 minutes at 600 RPM, then left to sit for 10 minutes for signal to stabilize before reading on a Spark Cyto plate reader (Tecan) with a 500 ms measurement time.
To determine compound effects on protein abundance of each target in Table 6, the percent response for each respective cell line was calculated at each compound concentration as follows:
For the normalized response at each concentration, a four-parameter logistical regression was fit to the data and the response was interpolated at the 50% value to determine a concentration for protein abundance at […] the untreated control.

Row | SMILES | IC50 [1] [nM] | IC50 [2] [nM] | IC50 [3] [nM] | IC50 [4] [nM]
1 | CCNC1CCN(c2ccc(C(=O)Nc3cc(F)c4nc(C)cn4c3)c3oc(C)cc23)CC1 [Compound 196] | < 100 | 1000 to 10000 | 1000 to 10000 | 1000 to 10000
2 | Cc1cn2cc(NC(=O)c3ccc(N4CCC(NC(C)(C)C)CC4)c4cc(C)oc34)cc(F)c2n1 [Compound 197] | 100 to 1000 | > 10000 | > 10000 | > 10000
3 | CC1=CC2C(N3CCC(N(C)C)CC3)=CC=C(C(=O)Nc3cc(F)c4nc(C)cn4c3)C2O1 (stereo not drawn) [Compound 198] | < 100 | 1000 to 10000 | 1000 to 10000 | > 10000
4 | Cc1cn2cc(NC(=O)c3ccc(N4CCN5CCCC5C4)c4cc(C)oc34)cc(F)c2n1 (stereo not drawn) [Compound 199] | < 100 | 1000 to 10000 | 100 to 1000 | > 10000
5 | Cc1cn2cc(NC(=O)c3ccc(C4CCNCC4)c4cn(C)nc34)cc(F)c2n1 [Compound 208] | < 100 | 100 to 1000 | 100 to 1000 | 100 to 1000
6 | Cc1cc2c(N3CCNCC3)ccc(C(=O)Nc3cc(F)c4cn(C)nc4c3)c2o1 [Compound 217] | 1000 to 10000 | > 10000 | > 10000 | > 10000
